Test results taken from patent US7074789B2, “Kinase inhibitors” (Amgen Inc., priority 1999, dated 2006).
Read-outs that look alike come from different tables or passages of the source.

Legend:
Assay type in all cases: biochemical
[1] = molecular target: T1, IGFR-1 (Homo sapiens, UniProt P08069); experiment: Kinase inhibition assay (33P transfer), IGFR-1; details: Table 2, class symbols A-E
T1 construct: Kinases are expressed as either kinase domains or full length constructs; made in house

[2] = molecular target: T2, Lck (Homo sapiens, UniProt P06239); experiment: Kinase inhibition assay (33P transfer), Lck; details: read-out: Lck-1
T2 construct: Kinases are expressed as either kinase domains or full length constructs; made in house
In short: (§1)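 Each kinase, expressed as a GST- or polyHis-tagged domain or full-length protein, phosphorylated plate-attached poly(Glu,Tyr) 4:1 or poly(Arg,Ser) 3:1 using 33P-ATP. Bound radioactivity was measured by scintillation after a 0.5% phosphoric acid wash.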

[3] = molecular target: T3, AKT (Homo sapiens, UniProt Q9Y243); experiment: Kinase inhibition assay (33P transfer), AKT; details: read-out: AKT3-1
T3 construct: Kinases are expressed as either kinase domains or full length constructs; made in house
In short: as §1

[4] = molecular target: T4, Kdr (Homo sapiens, UniProt P35968); experiment: Kinase inhibition assay (33P transfer), Kdr; details: read-out: KDR-1
T4 construct: Kinases are expressed as either kinase domains or full length constructs; made in house
In short: as §1

[5] = molecular target: T5, c-Met (Homo sapiens, UniProt P08581); experiment: Kinase inhibition assay (33P transfer), c-Met; details: read-out: Met-1
T5 construct: Kinases are expressed as either kinase domains or full length constructs; made in house
In short: (§2)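 Recombinant kinase domains or full-length GST- or His-tagged constructs, from E. coli or baculovirus/High Five cells, sometimes with regulatory polypeptides. Transfer of 33P from ATP to plate-bound poly(Glu,Tyr) 4:1 or poly(Arg,Ser) 3:1 counted by liquid scintillation after phosphoric acid wash; IC50 is the concentration halving incorporation.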

[6] = molecular target: T6, EGFR (Homo sapiens, UniProt P00533); experiment: Kinase inhibition assay (33P transfer), EGFR; details: read-out: EGFR-1
T6 construct: Kinases are expressed as either kinase domains or full length constructs; made in house
In short: as §2

[7] = molecular target: T7, Itk (Homo sapiens, UniProt Q08881); experiment: Kinase inhibition assay (33P transfer), Itk; details: read-out: Itk-1
T7 construct: Kinases are expressed as either kinase domains or full length constructs; made in house
T7 sequence (Q08881 1-620): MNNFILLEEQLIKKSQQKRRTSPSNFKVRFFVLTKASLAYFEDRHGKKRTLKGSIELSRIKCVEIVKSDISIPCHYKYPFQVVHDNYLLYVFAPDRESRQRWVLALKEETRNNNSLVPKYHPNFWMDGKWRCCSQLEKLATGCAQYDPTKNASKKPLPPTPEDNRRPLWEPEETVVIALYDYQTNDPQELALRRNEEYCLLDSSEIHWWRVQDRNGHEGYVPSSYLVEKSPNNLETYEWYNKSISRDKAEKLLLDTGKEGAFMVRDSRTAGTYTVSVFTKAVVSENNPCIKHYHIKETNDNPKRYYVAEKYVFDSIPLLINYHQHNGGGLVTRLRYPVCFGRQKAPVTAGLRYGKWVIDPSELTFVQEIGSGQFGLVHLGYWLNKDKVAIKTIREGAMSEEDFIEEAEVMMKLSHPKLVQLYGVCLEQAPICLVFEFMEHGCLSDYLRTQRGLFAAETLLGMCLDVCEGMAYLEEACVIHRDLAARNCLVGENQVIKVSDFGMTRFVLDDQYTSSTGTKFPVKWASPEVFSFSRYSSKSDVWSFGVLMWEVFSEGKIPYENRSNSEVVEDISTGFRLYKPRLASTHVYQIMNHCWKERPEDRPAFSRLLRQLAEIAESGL
In short: as §2

[8] = molecular target: T8, Zap-70 (Homo sapiens, UniProt P43403); experiment: Kinase inhibition assay (33P transfer), Zap-70; details: read-out: Zap-1
T8 construct: Kinases are expressed as either kinase domains or full length constructs; made in house
T8 sequence (P43403 1-619): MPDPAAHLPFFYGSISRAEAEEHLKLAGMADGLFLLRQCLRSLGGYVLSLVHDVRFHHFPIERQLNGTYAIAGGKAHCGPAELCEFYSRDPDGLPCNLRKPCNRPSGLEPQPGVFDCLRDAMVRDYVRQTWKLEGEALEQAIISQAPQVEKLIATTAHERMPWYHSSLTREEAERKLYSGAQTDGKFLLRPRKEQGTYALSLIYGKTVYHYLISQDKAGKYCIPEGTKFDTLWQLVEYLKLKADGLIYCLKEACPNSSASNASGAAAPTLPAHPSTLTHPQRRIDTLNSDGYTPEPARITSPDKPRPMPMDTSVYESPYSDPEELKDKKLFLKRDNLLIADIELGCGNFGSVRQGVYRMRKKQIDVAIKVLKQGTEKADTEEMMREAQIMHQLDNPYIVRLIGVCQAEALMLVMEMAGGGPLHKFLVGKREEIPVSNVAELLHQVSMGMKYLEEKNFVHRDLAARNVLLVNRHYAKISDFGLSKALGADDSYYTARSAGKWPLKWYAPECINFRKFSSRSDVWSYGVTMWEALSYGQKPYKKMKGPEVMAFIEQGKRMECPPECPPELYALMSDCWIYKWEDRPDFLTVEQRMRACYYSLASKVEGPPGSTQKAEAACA
In short: as §1

[9] = molecular target: T9, ErbB4 (Homo sapiens, UniProt Q15303); experiment: Kinase inhibition assay (33P transfer), ErbB4; details: read-out: ErbB4-1
T9 construct: Kinases are expressed as either kinase domains or full length constructs; made in house

[10] = molecular target: T10, Tek (Homo sapiens, UniProt Q02763); experiment: Kinase inhibition assay (33P transfer), Tek; details: read-out: Tek-1
T10 construct: Kinases are expressed as either kinase domains or full length constructs; made in house
In short: as §2

[11] = molecular target: T11, EPHB4 (Homo sapiens, UniProt P54760); experiment: Kinase inhibition assay (33P transfer), EPHB4; details: read-out: EPHB4-1
T11 construct: Kinases are expressed as either kinase domains or full length constructs; made in house
T11 sequence (P54760 16-987): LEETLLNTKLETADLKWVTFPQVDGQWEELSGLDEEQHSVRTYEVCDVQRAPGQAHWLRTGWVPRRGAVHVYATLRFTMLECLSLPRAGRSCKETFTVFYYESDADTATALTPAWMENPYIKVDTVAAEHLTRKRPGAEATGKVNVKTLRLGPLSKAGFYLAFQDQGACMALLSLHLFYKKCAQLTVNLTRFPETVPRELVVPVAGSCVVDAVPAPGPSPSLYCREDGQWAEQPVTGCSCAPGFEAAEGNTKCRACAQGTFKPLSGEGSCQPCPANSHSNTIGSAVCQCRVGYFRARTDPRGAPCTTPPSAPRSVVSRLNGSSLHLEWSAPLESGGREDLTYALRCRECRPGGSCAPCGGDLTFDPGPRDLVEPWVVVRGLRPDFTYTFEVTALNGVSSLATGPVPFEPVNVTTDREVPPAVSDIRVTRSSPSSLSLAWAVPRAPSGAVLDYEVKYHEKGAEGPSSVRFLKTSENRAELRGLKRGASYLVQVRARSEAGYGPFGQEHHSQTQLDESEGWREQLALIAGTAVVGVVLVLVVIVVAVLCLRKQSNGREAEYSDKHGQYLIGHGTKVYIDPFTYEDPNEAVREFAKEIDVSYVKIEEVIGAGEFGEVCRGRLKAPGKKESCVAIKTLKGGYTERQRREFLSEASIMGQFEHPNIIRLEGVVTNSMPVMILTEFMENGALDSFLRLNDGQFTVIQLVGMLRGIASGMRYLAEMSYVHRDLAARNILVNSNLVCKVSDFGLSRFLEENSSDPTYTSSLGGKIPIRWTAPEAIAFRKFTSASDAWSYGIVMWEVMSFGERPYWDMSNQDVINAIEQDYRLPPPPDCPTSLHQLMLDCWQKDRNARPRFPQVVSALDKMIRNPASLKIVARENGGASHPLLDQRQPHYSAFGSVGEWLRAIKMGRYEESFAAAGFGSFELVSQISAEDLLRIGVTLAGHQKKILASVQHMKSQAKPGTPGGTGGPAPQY

[12] = molecular target: T1, IGFR-1; experiment: Kinase inhibition assay (33P transfer), IGFR-1; details: Table 2, kinase inhibition class
[13] = Table 2, kinase inhibition class

T3 sequence (Q9Y243 whole entry, the tested form may be a part): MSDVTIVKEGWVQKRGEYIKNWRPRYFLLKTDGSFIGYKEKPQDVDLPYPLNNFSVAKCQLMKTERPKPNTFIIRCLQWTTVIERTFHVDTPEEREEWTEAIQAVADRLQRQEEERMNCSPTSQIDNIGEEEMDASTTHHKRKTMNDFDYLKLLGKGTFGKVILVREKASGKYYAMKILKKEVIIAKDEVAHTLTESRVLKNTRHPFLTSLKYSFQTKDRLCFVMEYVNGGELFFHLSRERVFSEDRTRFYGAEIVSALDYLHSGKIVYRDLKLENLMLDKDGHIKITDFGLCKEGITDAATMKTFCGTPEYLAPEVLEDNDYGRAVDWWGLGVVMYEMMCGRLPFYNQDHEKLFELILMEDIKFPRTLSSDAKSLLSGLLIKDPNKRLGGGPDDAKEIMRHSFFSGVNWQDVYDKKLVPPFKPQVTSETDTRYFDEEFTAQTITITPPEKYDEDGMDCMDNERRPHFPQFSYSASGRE
T4 sequence (P35968 20-1356, species assumed): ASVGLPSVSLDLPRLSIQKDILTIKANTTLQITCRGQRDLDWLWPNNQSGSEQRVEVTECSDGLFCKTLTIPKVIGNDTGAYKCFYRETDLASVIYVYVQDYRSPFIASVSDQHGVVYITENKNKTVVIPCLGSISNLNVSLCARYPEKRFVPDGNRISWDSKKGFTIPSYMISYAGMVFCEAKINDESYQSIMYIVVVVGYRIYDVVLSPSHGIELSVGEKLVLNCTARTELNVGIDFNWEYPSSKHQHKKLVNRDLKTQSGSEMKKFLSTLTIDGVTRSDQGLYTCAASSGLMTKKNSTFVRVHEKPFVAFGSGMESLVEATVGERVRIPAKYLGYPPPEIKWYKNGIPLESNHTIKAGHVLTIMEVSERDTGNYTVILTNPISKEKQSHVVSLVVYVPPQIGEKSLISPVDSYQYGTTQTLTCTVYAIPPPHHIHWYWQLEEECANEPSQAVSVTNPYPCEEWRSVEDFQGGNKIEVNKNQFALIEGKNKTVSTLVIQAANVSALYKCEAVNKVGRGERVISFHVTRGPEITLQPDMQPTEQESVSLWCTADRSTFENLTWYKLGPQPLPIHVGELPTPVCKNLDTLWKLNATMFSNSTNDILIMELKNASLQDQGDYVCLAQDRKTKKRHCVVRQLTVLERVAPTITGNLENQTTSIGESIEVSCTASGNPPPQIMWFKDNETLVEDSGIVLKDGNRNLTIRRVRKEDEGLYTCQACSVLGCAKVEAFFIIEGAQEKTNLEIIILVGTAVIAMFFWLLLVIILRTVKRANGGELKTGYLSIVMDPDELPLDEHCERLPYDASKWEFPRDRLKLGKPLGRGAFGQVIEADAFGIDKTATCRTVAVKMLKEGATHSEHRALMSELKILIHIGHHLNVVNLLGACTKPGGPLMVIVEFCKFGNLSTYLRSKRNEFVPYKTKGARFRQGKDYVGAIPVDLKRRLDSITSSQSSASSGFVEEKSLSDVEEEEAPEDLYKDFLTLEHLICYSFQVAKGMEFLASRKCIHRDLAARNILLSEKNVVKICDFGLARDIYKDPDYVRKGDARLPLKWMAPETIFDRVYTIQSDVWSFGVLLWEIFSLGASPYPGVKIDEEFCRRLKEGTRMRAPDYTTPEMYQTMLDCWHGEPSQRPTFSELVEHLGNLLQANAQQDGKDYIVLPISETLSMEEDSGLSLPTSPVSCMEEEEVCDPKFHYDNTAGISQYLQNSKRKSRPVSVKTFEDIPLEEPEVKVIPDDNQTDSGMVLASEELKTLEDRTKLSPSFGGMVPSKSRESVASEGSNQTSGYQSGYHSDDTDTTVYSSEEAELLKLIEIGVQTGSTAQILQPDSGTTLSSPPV
T6 sequence (P00533 25-1210, species assumed): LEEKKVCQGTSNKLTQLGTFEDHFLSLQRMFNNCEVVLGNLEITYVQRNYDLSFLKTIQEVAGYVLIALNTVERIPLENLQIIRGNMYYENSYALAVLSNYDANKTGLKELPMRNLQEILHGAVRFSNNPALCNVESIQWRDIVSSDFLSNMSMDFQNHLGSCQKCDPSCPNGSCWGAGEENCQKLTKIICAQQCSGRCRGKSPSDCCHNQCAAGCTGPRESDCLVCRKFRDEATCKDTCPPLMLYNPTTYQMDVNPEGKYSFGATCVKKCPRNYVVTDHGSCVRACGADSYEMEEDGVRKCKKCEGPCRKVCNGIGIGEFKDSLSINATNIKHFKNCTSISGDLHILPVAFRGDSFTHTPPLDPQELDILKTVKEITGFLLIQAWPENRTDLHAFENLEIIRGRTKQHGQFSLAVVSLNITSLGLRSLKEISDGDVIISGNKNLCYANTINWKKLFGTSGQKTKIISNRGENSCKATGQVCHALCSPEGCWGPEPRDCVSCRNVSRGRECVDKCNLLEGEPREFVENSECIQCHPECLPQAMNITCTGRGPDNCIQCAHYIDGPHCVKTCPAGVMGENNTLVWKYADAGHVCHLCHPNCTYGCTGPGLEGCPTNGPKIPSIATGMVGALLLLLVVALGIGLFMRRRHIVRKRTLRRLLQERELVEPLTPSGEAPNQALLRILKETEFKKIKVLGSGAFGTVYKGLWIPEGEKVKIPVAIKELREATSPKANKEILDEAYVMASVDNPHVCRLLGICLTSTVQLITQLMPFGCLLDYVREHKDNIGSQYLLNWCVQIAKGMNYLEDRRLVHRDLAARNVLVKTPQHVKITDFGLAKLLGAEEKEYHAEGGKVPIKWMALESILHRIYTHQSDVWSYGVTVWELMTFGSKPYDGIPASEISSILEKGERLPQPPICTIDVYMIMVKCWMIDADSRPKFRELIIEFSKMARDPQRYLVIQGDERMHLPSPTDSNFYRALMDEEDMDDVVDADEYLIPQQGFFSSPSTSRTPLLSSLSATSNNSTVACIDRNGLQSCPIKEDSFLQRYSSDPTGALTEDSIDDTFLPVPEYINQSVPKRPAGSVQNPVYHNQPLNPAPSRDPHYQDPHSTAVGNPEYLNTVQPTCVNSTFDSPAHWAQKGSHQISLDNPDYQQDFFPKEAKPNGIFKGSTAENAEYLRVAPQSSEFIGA
T1 sequence (P08069 31-1367): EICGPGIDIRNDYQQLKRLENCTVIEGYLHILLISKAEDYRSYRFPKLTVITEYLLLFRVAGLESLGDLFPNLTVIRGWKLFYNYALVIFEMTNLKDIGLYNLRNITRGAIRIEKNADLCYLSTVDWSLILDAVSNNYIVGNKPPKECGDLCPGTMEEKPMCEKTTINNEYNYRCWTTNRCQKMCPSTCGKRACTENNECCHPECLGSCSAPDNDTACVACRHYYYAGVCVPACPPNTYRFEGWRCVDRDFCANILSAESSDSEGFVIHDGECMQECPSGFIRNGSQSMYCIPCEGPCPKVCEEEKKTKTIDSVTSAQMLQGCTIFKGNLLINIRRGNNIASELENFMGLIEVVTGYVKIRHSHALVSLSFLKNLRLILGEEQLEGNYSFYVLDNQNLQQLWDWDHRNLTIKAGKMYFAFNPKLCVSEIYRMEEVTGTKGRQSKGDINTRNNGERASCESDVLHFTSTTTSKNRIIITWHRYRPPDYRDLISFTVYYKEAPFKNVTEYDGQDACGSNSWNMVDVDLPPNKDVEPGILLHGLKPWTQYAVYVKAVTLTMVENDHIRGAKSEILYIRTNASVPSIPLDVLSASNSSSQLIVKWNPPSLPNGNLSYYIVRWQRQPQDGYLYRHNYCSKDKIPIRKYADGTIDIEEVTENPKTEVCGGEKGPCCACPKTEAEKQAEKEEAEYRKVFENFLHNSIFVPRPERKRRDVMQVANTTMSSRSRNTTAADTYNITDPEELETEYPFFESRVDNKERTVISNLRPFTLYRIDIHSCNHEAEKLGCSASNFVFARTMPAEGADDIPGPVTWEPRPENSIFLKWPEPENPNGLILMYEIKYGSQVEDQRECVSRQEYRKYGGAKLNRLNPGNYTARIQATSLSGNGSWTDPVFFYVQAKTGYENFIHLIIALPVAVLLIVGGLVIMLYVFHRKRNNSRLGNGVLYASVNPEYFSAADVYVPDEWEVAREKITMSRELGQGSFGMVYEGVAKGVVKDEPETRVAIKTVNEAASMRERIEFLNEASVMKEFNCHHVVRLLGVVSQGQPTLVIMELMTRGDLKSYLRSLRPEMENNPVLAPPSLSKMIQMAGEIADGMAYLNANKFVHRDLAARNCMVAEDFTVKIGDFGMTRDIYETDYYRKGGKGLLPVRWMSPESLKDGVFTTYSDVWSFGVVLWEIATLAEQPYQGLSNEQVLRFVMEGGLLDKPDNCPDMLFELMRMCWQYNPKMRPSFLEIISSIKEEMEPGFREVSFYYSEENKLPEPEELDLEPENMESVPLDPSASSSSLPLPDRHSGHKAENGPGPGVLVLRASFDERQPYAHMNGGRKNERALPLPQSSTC
T2 sequence (P06239 whole entry, species assumed, the tested form may be a part): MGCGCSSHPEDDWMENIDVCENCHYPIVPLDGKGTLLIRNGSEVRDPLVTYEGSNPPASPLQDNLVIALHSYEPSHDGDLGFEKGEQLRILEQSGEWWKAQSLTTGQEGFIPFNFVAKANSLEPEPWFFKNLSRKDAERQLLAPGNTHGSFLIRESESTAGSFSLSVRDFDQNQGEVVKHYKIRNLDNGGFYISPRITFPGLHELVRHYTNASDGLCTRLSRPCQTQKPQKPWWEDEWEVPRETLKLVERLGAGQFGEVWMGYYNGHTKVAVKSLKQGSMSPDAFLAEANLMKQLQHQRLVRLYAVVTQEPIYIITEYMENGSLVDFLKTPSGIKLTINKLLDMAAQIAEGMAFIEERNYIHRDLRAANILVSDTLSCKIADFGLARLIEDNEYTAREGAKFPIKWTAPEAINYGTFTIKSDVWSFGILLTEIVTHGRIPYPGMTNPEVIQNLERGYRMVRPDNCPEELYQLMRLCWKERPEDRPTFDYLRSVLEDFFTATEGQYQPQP

Structure (SMILES)	IC50 [1]	IC50 ([2]; Table 3, class symbols)	IC50 ([3]; Table 2, class symbols A-E)	IC50 ([4]; Table 3, class symbols)	IC50 ([5]; Table 2, class symbols A-E)	IC50 ([6]; Table 2, class symbols A-E)	IC50 ([7]; Table 3, class symbols)	IC50 ([8]; Table 3, class symbols)	IC50 ([2]; Table 3)	IC50 [3, 13]	IC50 [9]	IC50 ([4]; Table 3)	IC50 [5, 13]	IC50 [6, 13]	IC50 ([7]; Table 3)	IC50 [10]	IC50 ([8]; Table 3)	IC50 [11]	IC50 [12]
CC(C)Nc1ncccc1-c1ncnc(Nc2cccc(CO)c2)n1 [Compound 1114]	> 13.4 µM	1.19 to 7.13 µM	> 13.4 µM	1.19 to 7.13 µM	10.4 to 13.4 µM	10.4 to 13.4 µM	10.4 to 13.4 µM	10.4 to 13.4 µM											
COc1ccc(Nc2ncnc(Nc3ccc(OCc4ccccc4)cc3)n2)cc1O [Compound 171]									> 10.8 µM	0.963 to 5.78 µM	> 10.8 µM	> 10.8 µM	> 10.8 µM	< 0.963 µM	> 10.8 µM	> 10.8 µM	> 10.8 µM	5.78 to 8.42 µM	> 10.8 µM
COc1cc(Nc2ncnc(N(CCC(C)C)c3ccc(Cl)cc3)n2)cc(OC)c1OC [Compound 51]									0.873 to 5.24 µM	> 9.83 µM	5.24 to 7.64 µM	0.873 to 5.24 µM	0.873 to 5.24 µM	< 0.873 µM	> 9.83 µM	0.873 to 5.24 µM	> 9.83 µM	0.873 to 5.24 µM	> 9.83 µM
Cc1ccc2c(c1)CCCN2c1ncnc(Nc2c(C)ccc3ccccc23)n1 [Compound 854]	> 11.8 µM	> 11.8 µM	> 11.8 µM	> 11.8 µM	> 11.8 µM	1.05 to 6.29 µM	> 11.8 µM	> 11.8 µM											
Cc1ccc2c(c1)CCCN2c1ncnc(NCc2ccc(C(=O)O)cc2)n1 [Compound 853]	> 12 µM	> 12 µM	> 12 µM	> 12 µM	> 12 µM	> 12 µM	> 12 µM	> 12 µM											
COC(=O)c1cccc(Nc2ncnc(-n3c(Cl)nc4ccccc43)n2)c1 [Compound 1066]	> 11.8 µM	> 11.8 µM	6.3 to 9.19 µM	6.3 to 9.19 µM	6.3 to 9.19 µM	6.3 to 9.19 µM	> 11.8 µM	> 11.8 µM											
CC(C)Nc1ncccc1-c1ncnc(Nc2ccc3[nH]ncc3c2)n1 [Compound 1116]	1.15 to 6.93 µM	1.15 to 6.93 µM	10.1 to 13 µM	6.93 to 10.1 µM	1.15 to 6.93 µM	1.15 to 6.93 µM	> 13 µM	> 13 µM											
